# Measurements published in US9181182B2, “S1P receptors modulators” (Akaal Pharma PTY LTD, priority 2008, dated 2015).
# Structures can show the parent of a compound that is named as a salt.
# Columns and labels:
# S1P1 human receptor = S1P1 human receptor (Homo sapiens (Human), UniProt P21453); test: S1P1 [35S]-GTPgamaS binding assay (agonist activity); type: biochemical; conditions: for EC50: GTPgamaS binding, agonist; for EC50S1P1/EC50S1P: potency at S1P1 relative to S1P; for Efficacy (% of maximum): S1P1, relative to reference agonist S1P
# Chain of S1P1 human receptor (P21453 whole entry): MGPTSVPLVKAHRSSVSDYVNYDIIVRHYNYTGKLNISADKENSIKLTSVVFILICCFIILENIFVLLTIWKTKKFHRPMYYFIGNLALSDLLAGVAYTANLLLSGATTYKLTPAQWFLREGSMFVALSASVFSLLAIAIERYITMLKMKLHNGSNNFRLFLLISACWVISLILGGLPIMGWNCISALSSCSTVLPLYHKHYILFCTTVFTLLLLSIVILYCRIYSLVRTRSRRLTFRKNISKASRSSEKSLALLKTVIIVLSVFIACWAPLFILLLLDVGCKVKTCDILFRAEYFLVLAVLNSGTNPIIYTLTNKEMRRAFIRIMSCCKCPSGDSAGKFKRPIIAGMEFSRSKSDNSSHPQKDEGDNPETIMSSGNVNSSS
# Experimental: Selected Compounds of the Examples were evaluated at Millipore Corporation, USA, using S1P1 receptor; [^35S]-GTPgamaS binding assay. A [^35S]-GTPgamaS binding assay at Millipore was conducted by GPCR Profiler™ Custom Service Laboratory, Temecula, Calif., Millipore, Inc. to monitor dose-dependent agonist selectivity for selected Examples against the S1P1 receptors. The assay was completed with sample compounds subjected to an eight-point, four-fold dose response curve with starting concentration of 10 μM. Selectivity was determined upon initial addition of compounds followed by a 30 minute incubation at 30° C. Following compound incubation, bounded [^35S]-GTPgamaS was determined by filtration and scintillation counting.
# Independently, selected compounds were evaluated for S1P1 and S1P3 agonistic activity. The S1P1 assay system was GTPgama-S35 binding in membranes from CHO K1 cells, expressing S1P1 human receptor. The S1P3 assay system was calcium mobilization in CHO K1 cells expressing S1P3 human receptor. […] Compounds were tested initially at a concentration of 10 μM.
# [1] = system: Human promyelocytic leukemia (HL-60) cells; test: Cell viability (growth inhibition) assay, MTS; type: cell-based; conditions: 50% reduction in cell viability of HL-60 cells, 48 hr incubation
# Experimental: In order to measure the apoptotic effect of compounds on the metabolic activity of viable cells, the following assay was performed on Human promyelocytic leukemia cells. The assay utilises the tetrazolium compound (3-(4,5-dimethylthiazol-2-yl)-5-(3-carboxymethoxyphenyl)-2-(4-sulfophenyl)-2H-tetrazolium, inner salt; (MTS) and an electron coupling reagent (phenazine methosulfate; (PMS). MTS is bioreduced by cells into a formazan product the optical absorbance of which is measured directly from 96 well assay plates. The conversion of MTS into aqueous, soluble formazan is accomplished by dehydrogenase enzymes found in metabolically active cells. The quantity of formazan product as measured by the amount of 490 nm absorbance is directly proportional to the number of living cells in culture.
# The assay was based on the National Cancer Institute (NCI) protocol, briefly, cells were grown in RPMI 1640 media supplemented with 10% FCS (foetal calf serum) and kept at 37° C. in a humidified environment with 5% CO2.
# For the growth inhibition assay, Human promyelocytic leukemia (HL-60) cells were seeded at a density of 10,000 cells per well in 96 well plates in a volume of 100 μl and allowed to grow for 24 h. Compounds were serially diluted in DMSO at concentrations 100 fold higher than used in the assay (100×). Compounds were freshly prepared for each experiment. The 100× stocks were then diluted to 2× stocks into media and immediately, 100 μl of this 2× stock was added to the cells to create the desired final concentration of drug with a DMSO concentration of 1%. One row of each 96 well plate was treated with DMSO alone as a control. Cells were then incubated for a further 48 hr. Metabolic activity was determined using MTS (Promega) (90% 1.6 mg/ml MTS, 10% 1.6 mg/ml PMS (phenazine methosulfate) made fresh in PBS). 50 μl of this mix was added to all wells of the plates and allowed to incubate for 1.5-2 hr. Plates were shaken gently for about 15 min and absorbance was read on a plate reader at 490 nm. Averages were taken of the readings at each point with standard deviation and plotted using MicroCal Origin.
SMILES,EC50 (S1P1 human receptor),EC50S1P1/EC50S1P (S1P1 human receptor),IC50 ([1]; Homo sapiens),Efficacy (% of maximum) (S1P1 human receptor),IC50 [1]
"CC(C)(C)OC(=O)NC(CO)(CO)CN1CCc2c(OCc3cc4c(Cl)cc(Cl)cc4o3)cccc21 [41(b), t-butyl 1-(4-((4,6-dichlorobenzofuran-2-yl)methoxy)indolin-1-yl)-3-hydroxy-2-(hydroxymethyl)propan-2-ylcarbamate]",> 29 µM,3066.24,,,
"CCCCCCCCc1ccc(NCC(N)(CO)CO)cc1 [Example 1, 2-Amino-2-((4-octylphenylamino)methyl)propane-1,3-diol]",> 25 µM,>9259,,,
"CCCCCCCCc1ccc2c(ccn2CC(N)(CO)CO)c1 [Example 4, 2-Amino-2-((5-octyl-1H-indol-1-yl)methyl)propane-1,3-diol]",,,3.58 ± 0.04 µM,,
"CCCCCCCCc1ccc2c(c1)C(=O)C(=O)N2CC(N)(CO)CO [Example 5, 1-(2-Amino-3-hydroxy-2-(hydroxymethyl)propyl)-5-octylindoline-2,3-dione]",,,5.72 ± 2.18 µM,,
"COc1cc(CCc2ccc3c(c2)CCN3CC(N)(CO)CO)cc(OC)c1OC [Example 6, 2-Amino-2-((5-(3,4,5-trimethoxyphenethyl)indolin-1-yl)methyl)propane-1,3-diol]",,,44.9 ± 8.85 µM,,
"NC(CO)(CO)CCc1ccc(CCCn2cc(C(=O)C(F)(F)F)c3ccccc32)cc1 [Example 11, 1-(1-(3-(4-(3-amino-4-hydroxy-3-(hydroxymethyl)butyl)phenyl)propyl)-1H-indol-3-yl)-2,2,2-trifluoroethanone]",,,5.54 ± 2.3 µM,,
"Cl.NC(CO)(CO)CCc1ccc(CCc2ccc(C(=O)c3ccc(F)cc3)cc2)cc1 [Example 12, (4-(4-(3-Amino-4-hydroxy-3-(hydroxymethyl)butyl)phenethyl)phenyl)(4-fluorophenyl)methanone hydrochloride salt]",1.82 µM,557,,49%,
"COc1ccc2c(C(=O)c3cc(OC)c(OC)c(OC)c3)cn(S(=O)(=O)c3ccc(CCC(N)(CO)CO)cc3)c2c1 [Example 13, (1-(4-(3-Amino-4-hydroxy-3-(hydroxymethyl)butyl)phenylsulfonyl)-6-methoxy-1H-indol-3-yl)(3,4,5-trimethoxyphenyl)methanone]",,,0.44 ± 0.04 µM,,
"Cc1ccc(-c2ccc(CCC(N)(CO)CO)cc2)cc1 [Example 18, 2-Amino-2-(2-(4′-methylbiphenyl-4-yl)ethyl)propane-1,3-diol]",,,7.07 ± 0.23 µM,,
"COc1cc(CCc2cccc(CCC(N)(CO)CO)c2)cc(OC)c1OC [Example 21, 2-Amino-2-(3-(3,4,5-trimethoxyphenethyl)phenethyl)propane-1,3-diol]",,,28.5 ± 3.21 µM,,
"NC(CO)(CO)CCc1ccc(O)c(C23CC4CC(CC(C4)C2)C3)c1 [Example 22, 2-Amino-2-(3-(admantyl)-4-hydroxyphenethyl)propane-1,3-diol hydrochloride salt]",,,,,10.5 ± 0.4 µM
"COc1ccc(CCc2ccc(CCC(N)(CO)CO)cc2)cc1C12CC3CC(CC(C3)C1)C2 [Example 26, 2-Amino-2-(4-(3-(1-admantanyl-4-methoxyphenethyl)phenethyl)propane-1,3-diol hydrochloride salt]",,,,,2.29 ± 0.57 µM
"CC(C)Oc1ccc(CCC(N)(CO)CO)cc1C12CC3CC(CC(C3)C1)C2 [Example 28, 2-Amino-2-(3-1-admantanyl-4-isopropoxyphenethyl)propane-1,3-diol hydrochloride salt]",,,,,1.56 ± 0.37 µM
"Cc1ccc(OCCCc2ccc(CCC(N)(CO)CO)cc2)c(C23CC4CC(CC(C4)C2)C3)c1 [Example 29, 2-Amino-2-(4-(3-(2-(1-admanynyl)-4-methylphenoxy)propyl)phenethyl) propane-1,3-diol hydrochloride salt]",,,,,3.94 ± 0.4 µM
"CCCCCCCCc1ccc(CNCC(N)(CO)CO)cc1 [Example 31, 2-Amino-2-((4-octylbenzylamino)methyl)propane-1,3-diol]",,,> 10 µM,,
"NC(CO)(CO)CN1CCc2cc(OCc3cccc(F)c3)ccc2C1 [Example 37, 2-Amino-2-((6-(3-fluorobenzyloxy)-3,4-dihydroisoquinolin-2(1H)-yl)methyl)propane-1,3-diol]",,,26.9 ± 9.16 µM,,
"NC(CO)(CO)CN1CCc2cc(OCc3ccc(-c4ccccc4C(F)(F)F)cc3)ccc2C1 [Example 39, 2-Amino-2-((6-((2′-(trifluoromethyl)biphenyl-4-yl)methoxy)-3,4-dihydroisoquinolin-2(1H)-yl)methyl)propane-1,3-diol]",> 3.24 µM,>1000,,117%,
"CCCOc1ccc(-c2nc(-c3cccc4c3CCN4CC(N)(CO)CO)no2)cc1I [Example 44, 2-Amino-2-((4-(5-(3-iodo-4-propoxyphenyl)-1,2,4-oxadiazol-3-yl)indolin-1-yl)methyl)propane-1,3-diol]",0.0481 µM,18.24,,60%,
"CCCOc1ccc(-c2nc(-c3cccc4c3CCN4CC(N)(CO)CO)no2)cc1N [Example 46, 2-Amino-2-((4-(5-(3-amino-4-propoxyphenyl)-1,2,4-oxadiazol-3-yl)indolin-1-yl)methyl)propane-1,3-diol]",0.088 µM,10.61,,94%,
"CCCc1ccc(-c2nc(-c3cccc4c3CCN4CC(N)(CO)CO)no2)cc1 [Example 48, 2-Amino-2-((4-(5-(4-propylphenyl)-1,2,4-oxadiazol-3-yl)indolin-1-yl)methyl)propane-1,3-diol]",0.0067 µM,0.14,,78%,
"CC(C)Oc1ccc(-c2nc(-c3ccc4c(c3)CCN4CC(N)(CO)CO)no2)cc1Cl [Example 51, 2-Amino-2-((5-(5-(3-chloro-4-isopropoxyphenyl)-1,2,4-oxadiazol-3-yl)indolin-1-yl)methyl)propane-1,3-diol]",0.0035 µM,0.38,,85%,
"CCCCOc1ccc(-c2nc(-c3ccc4c(c3)CCN4CC(N)(CO)CO)no2)cc1Cl [Example 52, 2-Amino-2-((5-(5-(4-butoxy-3-chlorophenyl)-1,2,4-oxadiazol-3-yl)indolin-1-yl)methyl)propane-1,3-diol]",0.0345 µM,3.55,,62%,
"CCCCCOc1ccc(-c2nc(-c3ccc4c(c3)CCN4CC(N)(CO)CO)no2)cc1Cl [Example 54, 2-Amino-2-((5-(5-(3-chloro-4-(pentyloxy)phenyl)-1,2,4-oxadiazol-3-yl)indolin-1-yl)methyl)propane-1,3-diol]",0.0438 µM,5.93,,73%,
"CCOc1ccc(-c2nc(-c3cccc4c3CCN4CC(N)(CO)CO)no2)cc1OC [Example 55, 2-Amino-2-((4-(5-(4-ethoxy-3-methoxyphenyl)-1,2,4-oxadiazol-3-yl)indolin-1-yl)methyl)propane-1,3-diol]",0.0316 µM,2.56,,101%,
"CCCOc1ccc(-c2nc(-c3ccc4c(c3)CCN4CC(N)(CO)CO)no2)cc1Br [Example 56, 2-Amino-2-((5-(5-(3-bromo-4-propoxyphenyl)-1,2,4-oxadiazol-3-yl)indolin-1-yl)methyl)propane-1,3-diol]",0.0029 µM,0.29,,79%,
"NC(CO)(CO)CN1CCc2cc(CCc3ccc(-c4ccccc4C(F)(F)F)cc3)ccc21 [Example 59, 2-Amino-2-((5-(2-(2′-(trifluoromethyl)biphenyl-4-yl)ethyl)indolin-1-yl)methyl)propane-1,3-diol]",> 2.13 µM,>1000,,,
"CC(C)Oc1ccc(CCN(C)CC(N)(CO)CO)cc1C12CC3CC(CC(C3)C1)C2 [Example 60, 2-Amino-2-(((3-(1-admantyl)-4-isopropoxyphenethyl)(methyl)amino)methyl)propane-1,3-diol]",,,,,3.3 ± 0.26 µM
"CC(C)Oc1cc2c(cc1C13CC4CC(CC(C4)C1)C3)CN(CC(N)(CO)CO)CC2 [Example 61, 2-Amino-2-((7-(1-admantyl)-6-isopropoxy-3,4-dihydroisoquinolin-2(1H)-yl)methyl)propane-1,3-diol]",,,,,3.27 ± 0.12 µM
